The target of test [1] is T1, full-length human Aurora A (Homo sapiens, UniProt O14965).
T1 sequence (O14965 1-403): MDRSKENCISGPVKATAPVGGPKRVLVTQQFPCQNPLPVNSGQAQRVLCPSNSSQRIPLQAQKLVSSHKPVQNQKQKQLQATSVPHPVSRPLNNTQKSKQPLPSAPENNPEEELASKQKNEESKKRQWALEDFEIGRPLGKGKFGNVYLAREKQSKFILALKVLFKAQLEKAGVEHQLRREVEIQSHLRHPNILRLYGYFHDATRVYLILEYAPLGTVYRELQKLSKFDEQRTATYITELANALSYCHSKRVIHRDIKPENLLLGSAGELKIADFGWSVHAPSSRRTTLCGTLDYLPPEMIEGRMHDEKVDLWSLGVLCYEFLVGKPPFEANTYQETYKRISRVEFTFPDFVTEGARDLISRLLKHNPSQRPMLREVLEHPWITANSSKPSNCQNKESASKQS
The test can be described thus: Aurora A kinase assay (ADP-Glo, Kemptide substrate).

For another test, the system named is RPE1 cells. Kind of test: Cytokinesis assay (live imaging, YFP-α-tubulin; H2B-RFP), RPE1. Conditions: Homo sapiens, RPE-1; RPE1; cytokinesis failure; read-out: Cytokinesis IC50. The format is cell-based.
The subject of a further test is U2OS cells. The test can be described thus: Cytokinesis assay (live imaging, YFP-α-tubulin; H2B-RFP), U2OS. The format is cell-based. The settings on record: Homo sapiens, cytokinesis failure, read-out: Cytokinesis IC50.
The target in another test is Aurora A-TPX2. Conditions: ref 61; read-out: Aurora A-TPX2 Ki (Published); cited from earlier work.
Where [2] appears, read: fold difference in potency calculated by dividing Ki values.

With `O=C(c1cccc(Cl)c1F)N1CCN(Cc2cccc(Nc3nccs3)n2)CC1` [MK-8745], the half-maximal inhibitory concentration (IC50) in test [1] came out at 0.23 nM. In addition, the Ki in test [1] (Aurora A Ki Mean ± SD, [ATP] = Km(ATP) (35 μM), Ki calculated from IC50 with tight-binding equation) was 0.06 ± 0.004 nM. Further, in test [1] (setting [2]), the “Selectivity ratio Aur A versus Aur A-TPX2^1–43” value is 6.3 fold and the “Selectivity ratio Aur A versus Aur B-INCENP^783–918” value was 1030 fold.

For `CCn1cc(-c2ccnc3[nH]c(-c4cccc(CN(C)C)c4)cc23)c(-c2ccc(NC(=O)N(C)C)cc2)n1` [GSK1070916], the IC50 in the test with RPE1 cells was 21 nM; with U2OS cells, 6 nM. On Aurora A-TPX2, the Ki was 492 nM.

Usually IC50 stands for the point on the concentration scale where inhibition reaches its midpoint. In general, Ki refers to a measure of affinity in units of concentration, obtained from inhibition or displacement.

(Values after publication PMC4685510, “A Cell Biologist’s Field Guide to Aurora Kinase Inhibitors” (Frontiers in Oncology, 2015).)
